Test results as given in ChEMBL document CHEMBL1201862, “PubChem BioAssay data set” (2004).
The source made the active and inactive calls.

Columns and labels:
[1] = biological target: T1, Epstein-Barr nuclear antigen 1 (Epstein-Barr virus (strain B95-8) (HHV-4) (Human herpesvirus 4), UniProt P03211); test: inhibition of EBV nuclear antigen 1 DNA binding – biochemical, fluorescence polarization, 1536-well, dose response (AID 2381); set-up: species or system human gammaherpesvirus 4;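 also: fluorescence polarization of a Cy5 DNA probe bound by EBNA-1 protein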
T1 sequence (P03211 whole entry): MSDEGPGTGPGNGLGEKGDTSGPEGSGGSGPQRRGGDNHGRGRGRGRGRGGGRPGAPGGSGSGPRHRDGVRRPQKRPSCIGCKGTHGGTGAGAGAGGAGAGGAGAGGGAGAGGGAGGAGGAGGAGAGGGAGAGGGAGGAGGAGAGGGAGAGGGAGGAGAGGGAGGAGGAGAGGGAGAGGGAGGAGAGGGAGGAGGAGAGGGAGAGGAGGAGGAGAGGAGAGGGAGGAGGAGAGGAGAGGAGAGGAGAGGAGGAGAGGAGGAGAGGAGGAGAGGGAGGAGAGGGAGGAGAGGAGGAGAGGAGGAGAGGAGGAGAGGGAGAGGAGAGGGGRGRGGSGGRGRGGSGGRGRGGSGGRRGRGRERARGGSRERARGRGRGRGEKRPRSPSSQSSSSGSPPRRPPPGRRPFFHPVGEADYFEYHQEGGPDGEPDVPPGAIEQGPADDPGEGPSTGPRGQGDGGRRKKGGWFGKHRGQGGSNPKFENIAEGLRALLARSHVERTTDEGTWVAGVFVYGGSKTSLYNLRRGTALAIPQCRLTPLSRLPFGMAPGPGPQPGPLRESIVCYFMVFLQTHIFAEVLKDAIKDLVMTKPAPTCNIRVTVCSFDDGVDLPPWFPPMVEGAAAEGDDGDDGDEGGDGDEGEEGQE

[2] = biological target: T2, Lytic switch protein BZLF1 (Epstein-Barr virus (strain B95-8) (HHV-4) (Human herpesvirus 4), UniProt P03206); test: inhibition of BZLF1 ZTA DNA binding – biochemical, fluorescence polarization, Epstein-Barr virus, 1536-well, counter-screen for EBNA-1 inhibitor project, dose response (AID 2377); set-up: species or system human gammaherpesvirus 4;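 also: fluorescence polarization of Cy5-labelled ZRE DNA probe bound by purified Zta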
T2 sequence (P03206 whole entry): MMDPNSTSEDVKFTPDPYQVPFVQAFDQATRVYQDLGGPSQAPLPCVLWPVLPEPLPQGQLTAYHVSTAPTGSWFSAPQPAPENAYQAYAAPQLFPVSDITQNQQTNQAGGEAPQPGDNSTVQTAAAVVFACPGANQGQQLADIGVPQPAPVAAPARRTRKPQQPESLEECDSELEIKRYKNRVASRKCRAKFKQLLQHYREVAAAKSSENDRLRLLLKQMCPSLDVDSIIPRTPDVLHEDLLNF

[3] = test system: HT-1080; test: HT1080 cell viability loss – fluorescence readout (AID 620); type: functional, cell-based; settings: Homo sapiens
[4] = biological target: Luciferin 4-monooxygenase (Photinus pyralis, UniProt P08659); test: Counter Screen for Luciferase-based Assay Positives. [Related pubchem assays: 620, 618, 411 ]
[5] = NIH3T3 cell viability loss – ATP luminescence, mouse fibroblasts, counter-screen, dose response (AID 2010); type: functional, cell-based;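 also: cells exposed to compound for about 90 hours before reading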
[6] = Trypanosoma cruzi growth suppression in host cells – NIH3T3 host cells, beta-gal luminescence, confirmation (AID 2044); type: functional, cell-based;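 also: intracellular parasites grown in NIH/3T3 mouse fibroblasts as host cells; luminescent beta-galactosidase reporter signal from transgenic T. cruzi replicating inside host cells; inhibitors lower the luminescence signal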
[7] = cells
[8] = biological target: T3, Mannose-6-phosphate isomerase (Homo sapiens, UniProt P34949); test: MPI inhibition at elevated mannose 6-phosphate – biochemical, fluorescence intensity, high mannose 6-phosphate, primary screen (AID 1220)
T3 sequence (P34949 whole entry): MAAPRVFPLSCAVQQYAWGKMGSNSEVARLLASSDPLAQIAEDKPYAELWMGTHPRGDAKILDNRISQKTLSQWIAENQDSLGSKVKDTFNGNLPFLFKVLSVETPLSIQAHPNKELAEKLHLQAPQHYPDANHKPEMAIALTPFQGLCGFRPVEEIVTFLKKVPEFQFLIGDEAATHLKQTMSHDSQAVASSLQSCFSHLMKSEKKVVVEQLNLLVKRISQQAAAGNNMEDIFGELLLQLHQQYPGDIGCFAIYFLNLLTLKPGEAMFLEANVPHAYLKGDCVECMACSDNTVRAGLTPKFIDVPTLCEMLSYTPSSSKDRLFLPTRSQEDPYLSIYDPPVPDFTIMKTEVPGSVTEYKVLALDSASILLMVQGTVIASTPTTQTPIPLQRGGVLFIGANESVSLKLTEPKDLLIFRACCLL

[9] = cells; remark: listed apart in the source
[10] = OVCAR8 cell viability loss – plate reader, dry powder samples, PAX8 project, dose response (AID 743197); type: functional, cell-based; settings: OVCAR-8
[11] = biological target: Paired box protein Pax-8 (Homo sapiens, UniProt Q06710); test: PAX8 transcriptional activity inhibition in RMG-I – RMG-I cells, luciferase, cherry-pick, dose response (AID 687027); type: functional, cell-based;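 also: luciferase reporter driven by Pax8 target thyroperoxidase promoter measured by SteadyGlo luminescence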
[12] = viability loss in THP-1 monocytes – THP-1 cells, cytotoxicity control for Vif-APOBEC3G degradation inhibitor project, dose response (AID 1117359); type: functional; settings: THP-1
[13] = biological target: T4, Rac GTPase-activating protein 1 (Homo sapiens, UniProt Q9H0H5); test: blockers of MgcRacGAP-driven Rac1 GTP hydrolysis – biochemical, ADP Hunter fluorescence, primary and confirmatory, confirmation (AID 624330); type: functional
T4 sequence (Q9H0H5 whole entry): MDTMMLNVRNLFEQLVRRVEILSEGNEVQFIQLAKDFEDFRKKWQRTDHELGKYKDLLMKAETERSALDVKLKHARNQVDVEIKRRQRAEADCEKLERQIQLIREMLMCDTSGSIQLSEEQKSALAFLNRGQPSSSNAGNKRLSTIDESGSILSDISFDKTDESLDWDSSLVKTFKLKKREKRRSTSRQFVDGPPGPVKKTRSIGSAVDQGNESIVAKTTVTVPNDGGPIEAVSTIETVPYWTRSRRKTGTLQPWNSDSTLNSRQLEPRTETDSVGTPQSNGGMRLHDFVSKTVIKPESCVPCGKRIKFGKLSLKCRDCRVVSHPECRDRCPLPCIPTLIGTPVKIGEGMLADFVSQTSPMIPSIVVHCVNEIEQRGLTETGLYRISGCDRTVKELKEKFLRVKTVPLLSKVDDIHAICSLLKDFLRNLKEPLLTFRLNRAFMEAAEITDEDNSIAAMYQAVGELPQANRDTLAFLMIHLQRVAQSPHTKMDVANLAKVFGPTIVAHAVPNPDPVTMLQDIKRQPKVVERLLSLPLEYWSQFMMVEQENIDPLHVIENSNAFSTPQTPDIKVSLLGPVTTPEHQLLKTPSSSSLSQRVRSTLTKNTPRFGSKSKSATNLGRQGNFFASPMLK

Sequence of Luciferin 4-monooxygenase (P08659 whole entry): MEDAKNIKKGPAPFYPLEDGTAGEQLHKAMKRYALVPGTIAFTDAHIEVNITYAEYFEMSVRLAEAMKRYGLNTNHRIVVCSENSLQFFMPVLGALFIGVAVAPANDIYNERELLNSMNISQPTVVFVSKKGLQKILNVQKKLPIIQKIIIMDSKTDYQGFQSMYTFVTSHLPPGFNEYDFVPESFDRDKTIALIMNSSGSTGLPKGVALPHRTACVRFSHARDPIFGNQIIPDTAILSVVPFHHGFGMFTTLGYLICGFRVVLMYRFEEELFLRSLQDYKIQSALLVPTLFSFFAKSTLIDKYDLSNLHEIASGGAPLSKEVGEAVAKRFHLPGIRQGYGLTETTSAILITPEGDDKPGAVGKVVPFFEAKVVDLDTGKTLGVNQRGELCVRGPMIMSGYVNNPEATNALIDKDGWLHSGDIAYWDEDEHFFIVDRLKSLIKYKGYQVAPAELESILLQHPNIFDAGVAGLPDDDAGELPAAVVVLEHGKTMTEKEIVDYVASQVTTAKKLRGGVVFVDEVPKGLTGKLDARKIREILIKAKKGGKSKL
Sequence of Paired box protein Pax-8 (Q06710 whole entry): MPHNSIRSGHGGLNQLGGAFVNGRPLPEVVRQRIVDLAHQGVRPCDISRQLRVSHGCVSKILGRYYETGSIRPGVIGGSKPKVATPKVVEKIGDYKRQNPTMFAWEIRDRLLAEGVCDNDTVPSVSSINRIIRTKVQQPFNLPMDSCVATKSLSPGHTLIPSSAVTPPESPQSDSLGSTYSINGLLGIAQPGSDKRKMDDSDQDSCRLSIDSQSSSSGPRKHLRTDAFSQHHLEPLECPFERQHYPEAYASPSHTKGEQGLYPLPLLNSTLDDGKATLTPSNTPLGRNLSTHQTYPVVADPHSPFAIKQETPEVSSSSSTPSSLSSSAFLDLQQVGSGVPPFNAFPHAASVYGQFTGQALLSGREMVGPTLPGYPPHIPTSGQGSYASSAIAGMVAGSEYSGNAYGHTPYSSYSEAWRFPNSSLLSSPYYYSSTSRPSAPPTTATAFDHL

Structure (SMILES): O=C(Nc1ccccc1F)c1cc2c(s1)-c1ccccc1S(=O)(=O)C2
- IC50 [1]: 15.9 µM (not active)
- IC50 [2]: 93.7 µM (not active)

Structure (SMILES): Cc1ccc(-n2nc3ccc(N)cc3n2)cc1
- EC50 [3]: > 50 µM (not active)
- EC50 [4]: > 100 µM (not active)

Structure (SMILES): CCCn1ncc(CN2CCCC(C(=O)c3cccc(OC)c3)C2)c1C (stereo not drawn)
- EC50 [5]: 26.4 µM (active)
- EC50 [6]: < 0.1 µM (active)
- EC50 [7]: 0.016 µM (active)

Structure (SMILES): Cc1ccc(NC(=O)CSc2nnc(NC(=O)c3ccc(S(=O)(=O)N4CCOCC4)cc3)s2)cc1
- IC50 [1]: 15.7 µM (not active)
- IC50 [2]: > 111 µM (not active)

Structure (SMILES): O=[N+]([O-])c1ccc2c(c1NCCO)=NC1(CCCCC1)[N+]=2[O-]
- IC50 [8]: > 50 µM (not active)

Structure (SMILES): C/C(N)=C(/C#N)C(=O)CN1C(=O)NC(Cc2c[nH]c3ccccc23)C1=O (stereo not drawn)
- IC50 [9]: 1.91 µM (active)

Structure (SMILES): O=C(C[C@@H]1C[C@@H]2c3cc(NS(=O)(=O)c4ccc(F)cc4)ccc3O[C@@H]2[C@@H](CO)O1)NCc1ccc(-c2ccccc2)cc1
- AC50 [10]: > 70 µM (inactive)
- AC50 [11]: 4.41 µM (active)

Structure (SMILES): COc1ccc(-c2cn3c(C)c(C(=O)NCc4ccc5c(c4)OCO5)sc3n2)cc1
- IC50 [1]: 4.84 µM (active)
- IC50 [2]: > 111 µM (not active)

Structure (SMILES): C=CCN1C(=O)c2ccc(C(=O)N3CCN(c4ccccc4OC)CC3)cc2C1=O
- CC50 [12]: > 40 µM (active)

Structure (SMILES): CCOC(=O)c1sc(/N=C/c2c(O)ccc3ccccc23)cc1C
- IC50 [13]: 139 µM (active)
- IC50 [8]: > 50 µM (not active)
